Data: ChEMBL document CHEMBL3885881, “DrugMatrix”

Species: Rattus norvegicus
Assay: DrugMatrix - Regimen: Daily Repeat
Format: toxicity, organism-based, Sprague-Dawley
Parameters: regimen Daily Repeat, gender Male, age 6-8 weeks
Settings: in vivo, po, route oral GAVAGE, […]; for ABSOLUTE BASOPHIL / ABSOLUTE EOSINOPHIL / ABSOLUTE LYMPHOCYTE / ABSOLUTE MONOCYTE / ABSOLUTE SEGMENTED NEUTROPHIL / BASOPHIL / EOSINOPHIL / ERYTHROCYTE COUNT / HEMATOCRIT / HEMOGLOBIN / LEUKOCYTE COUNT / LYMPHOCYTE / MEAN CORPUSCULAR HEMOGLOBIN / MEAN CORPUSCULAR HEMOGLOBIN CONCENTRATION / MEAN CORPUSCULAR VOLUME / MONOCYTE / NEUTROPHIL / NUCLEATED RED BLOOD CELLS / PLATELET COUNT: tissue Blood; for ALANINE AMINOTRANSFERASE / ALBUMIN / ALKALINE PHOSPHATASE / ASPARTATE AMINOTRANSFERASE / BLOOD UREA NITROGEN / CARBON DIOXIDE / CHLORIDE / CHOLESTEROL / CREATINE PHOSPHOKINASE / CREATININE / GLUCOSE / LACTATE DEHYDROGENASE / LIPASE / PHOSPHORUS / POTASSIUM / SODIUM / TOTAL BILIRUBIN / TOTAL PROTEIN / URIC ACID: tissue Plasma
[1] = 3 mg/kg, 120 h, dose level Low, time 5 day
[2] = 300 mg/kg, 72 h, dose level High, time 3 day
[3] = 300 mg/kg, 120 h, dose level High, time 5 day

In the case of `CC#C[C@]1(O)CC[C@H]2[C@@H]3CCC4=CC(=O)CCC4=C3[C@@H](c3ccc(N(C)C)cc3)C[C@@]21C` [MIFEPRISTONE], the “ABSOLUTE BASOPHIL” value [1] was 0 CELLS/uL, the “ABSOLUTE EOSINOPHIL” value [1] was 0 CELLS/uL and the “ABSOLUTE LYMPHOCYTE” value [1] was 7739.67 CELLS/uL. For the same compound, the “ABSOLUTE MONOCYTE” value [1] was 116.67 CELLS/uL, the “ABSOLUTE SEGMENTED NEUTROPHIL” value [1] was 1310.33 CELLS/uL and the BASOPHIL [1] was 0%. For the same compound, the EOSINOPHIL [1] was 0%, the “ERYTHROCYTE COUNT” value [1] was 4.91 x10E6/uL and the HEMATOCRIT [1] was 31.8%. For the same compound, the HEMOGLOBIN [1] was 12.53 G/DL, the “LEUKOCYTE COUNT” value [1] was 9.17 x10E3/uL and the LYMPHOCYTE [1] was 84.33%. For the same compound, the “MEAN CORPUSCULAR HEMOGLOBIN” value [1] was 25.53 pg, the “MEAN CORPUSCULAR HEMOGLOBIN CONCENTRATION” value [1] was 39.43 G/DL and the “MEAN CORPUSCULAR VOLUME” value [1] was 64.83 fL. For the same compound, the MONOCYTE [1] was 1.33%, the NEUTROPHIL [1] was 14.33% and the “NUCLEATED RED BLOOD CELLS” value [1] was 0 /100WBC. For the same compound, the “PLATELET COUNT” value [1] was 1194.67 x10E3/uL, the “ALANINE AMINOTRANSFERASE” value [1] was 61.67 u/L and the ALBUMIN [1] was 4.13 G/DL. The “ALKALINE PHOSPHATASE” value [1] was 340.33 u/L, the “ASPARTATE AMINOTRANSFERASE” value [1] was 84 u/L and the “BLOOD UREA NITROGEN” value [1] was 13.33 mg/dL. For the same compound, the “CARBON DIOXIDE” value [1] was 30.33 mmol/L, the CHLORIDE [1] was 97.67 MEQ/L and the CHOLESTEROL [1] was 64.67 mg/dL. The “CREATINE PHOSPHOKINASE” value [1] was 193.33 u/L, the CREATININE [1] was 0.14 mg/dL and the GLUCOSE [1] was 154.33 mg/dL. For the same compound, the “LACTATE DEHYDROGENASE” value [1] was 87 u/L, the LIPASE [1] was 9.33 u/L and the PHOSPHORUS [1] was 10.8 mg/dL. The POTASSIUM [1] was 5.65 MEQ/L, the SODIUM [1] was 143.37 MEQ/L and the “TOTAL BILIRUBIN” value [1] was 0.13 mg/dL. The “TOTAL PROTEIN” value [1] was 5.9 G/DL, the “URIC ACID” value [1] was 0.73 mg/dL and the “ABSOLUTE BASOPHIL” value [2] was 0 CELLS/uL. The “ABSOLUTE EOSINOPHIL” value [2] was 0 CELLS/uL, the “ABSOLUTE LYMPHOCYTE” value [2] was 6590.67 CELLS/uL and the “ABSOLUTE MONOCYTE” value [2] was 75.33 CELLS/uL. The “ABSOLUTE SEGMENTED NEUTROPHIL” value [2] was 634 CELLS/uL, the BASOPHIL [2] was 0% and the EOSINOPHIL [2] was 0%. For the same compound, the “ERYTHROCYTE COUNT” value [2] was 5.5 x10E6/uL, the HEMATOCRIT [2] was 33.8% and the HEMOGLOBIN [2] was 13.33 G/DL. For the same compound, the “LEUKOCYTE COUNT” value [2] was 7.3 x10E3/uL, the LYMPHOCYTE [2] was 90.67% and the “MEAN CORPUSCULAR HEMOGLOBIN” value [2] was 24.3 pg. The “MEAN CORPUSCULAR HEMOGLOBIN CONCENTRATION” value [2] was 39.47 G/DL, the “MEAN CORPUSCULAR VOLUME” value [2] was 61.57 fL and the MONOCYTE [2] was 1%. For the same compound, the NEUTROPHIL [2] was 8.33%, the “NUCLEATED RED BLOOD CELLS” value [2] was 0 /100WBC and the “PLATELET COUNT” value [2] was 1129.67 x10E3/uL. The “ALANINE AMINOTRANSFERASE” value [2] was 63 u/L, the ALBUMIN [2] was 3.77 G/DL and the “ALKALINE PHOSPHATASE” value [2] was 417.67 u/L. For the same compound, the “ASPARTATE AMINOTRANSFERASE” value [2] was 107.67 u/L, the “BLOOD UREA NITROGEN” value [2] was 14.33 mg/dL and the “CARBON DIOXIDE” value [2] was 28 mmol/L. For the same compound, the CHLORIDE [2] was 102.67 MEQ/L, the CHOLESTEROL [2] was 54.33 mg/dL and the “CREATINE PHOSPHOKINASE” value [2] was 371.67 u/L. For the same compound, the CREATININE [2] was 0.32 mg/dL, the GLUCOSE [2] was 160.67 mg/dL and the “LACTATE DEHYDROGENASE” value [2] was 97.67 u/L. It also gave an LIPASE [2] of 11 u/L, a PHOSPHORUS [2] of 9.53 mg/dL and a POTASSIUM [2] of 4.8 MEQ/L. For the same compound, the SODIUM [2] was 144.33 MEQ/L, the “TOTAL BILIRUBIN” value [2] was 0.17 mg/dL and the “TOTAL PROTEIN” value [2] was 5.53 G/DL. The “URIC ACID” value [2] was 0.37 mg/dL, the “ABSOLUTE BASOPHIL” value [3] was 0 CELLS/uL and the “ABSOLUTE EOSINOPHIL” value [3] was 48.67 CELLS/uL. The “ABSOLUTE LYMPHOCYTE” value [3] was 8343 CELLS/uL, the “ABSOLUTE MONOCYTE” value [3] was 151.67 CELLS/uL and the “ABSOLUTE SEGMENTED NEUTROPHIL” value [3] was 790 CELLS/uL. For the same compound, the BASOPHIL [3] was 0%, the EOSINOPHIL [3] was 0.67% and the “ERYTHROCYTE COUNT” value [3] was 5.36 x10E6/uL. The HEMATOCRIT [3] was 32.73%, the HEMOGLOBIN [3] was 12.93 G/DL and the “LEUKOCYTE COUNT” value [3] was 9.33 x10E3/uL. The LYMPHOCYTE [3] was 89%, the “MEAN CORPUSCULAR HEMOGLOBIN” value [3] was 24.17 pg and the “MEAN CORPUSCULAR HEMOGLOBIN CONCENTRATION” value [3] was 39.53 G/DL. The “MEAN CORPUSCULAR VOLUME” value [3] was 61.13 fL, the MONOCYTE [3] was 1.67% and the NEUTROPHIL [3] was 8.67%. For the same compound, the “NUCLEATED RED BLOOD CELLS” value [3] was 0 /100WBC, the “PLATELET COUNT” value [3] was 1290.33 x10E3/uL and the “ALANINE AMINOTRANSFERASE” value [3] was 84.33 u/L. The ALBUMIN [3] was 3.8 G/DL, the “ALKALINE PHOSPHATASE” value [3] was 386 u/L and the “ASPARTATE AMINOTRANSFERASE” value [3] was 91 u/L. For the same compound, the “BLOOD UREA NITROGEN” value [3] was 15.33 mg/dL, the “CARBON DIOXIDE” value [3] was 30.33 mmol/L and the CHLORIDE [3] was 97.67 MEQ/L. The CHOLESTEROL [3] was 86 mg/dL, the “CREATINE PHOSPHOKINASE” value [3] was 250 u/L and the CREATININE [3] was 0.3 mg/dL. For the same compound, the GLUCOSE [3] was 148.33 mg/dL, the “LACTATE DEHYDROGENASE” value [3] was 74.67 u/L and the LIPASE [3] was 25.67 u/L. The PHOSPHORUS [3] was 8.03 mg/dL, the POTASSIUM [3] was 5.82 MEQ/L and the SODIUM [3] was 142.7 MEQ/L. For the same compound, the “TOTAL BILIRUBIN” value [3] was 0.1 mg/dL, the “TOTAL PROTEIN” value [3] was 6 G/DL and the “URIC ACID” value [3] was 0.3 mg/dL.
